In patent US10688093B2, “Methods, compositions, and uses of novel Fyn kinase inhibitors” (priority 2015, dated 2020) one finds IC50 data, which are given here for 45 compounds.

In the test the target is full-length recombinant human FYN A (Homo sapiens (Human), UniProt P06241). The experiment in a line: ADP-Glo Kinase Assay of FYN kinase inhibition. Type of test: biochemical. As to conditions: primary screen, initial compounds. The method, boiled down: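 ADP-Glo read-out of peptide phosphorylation after 90 min RT with 12.5 pmol ATP and 100 pg 12-mer substrate. Enzyme was N-GST full-length human FYN A from insect cells, 3 pg, pre-incubated 30 min with compound, 10 points from 10 μM top, 3-fold steps; IC50 from curve.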
full-length recombinant human FYN A, sequence (P06241 whole entry): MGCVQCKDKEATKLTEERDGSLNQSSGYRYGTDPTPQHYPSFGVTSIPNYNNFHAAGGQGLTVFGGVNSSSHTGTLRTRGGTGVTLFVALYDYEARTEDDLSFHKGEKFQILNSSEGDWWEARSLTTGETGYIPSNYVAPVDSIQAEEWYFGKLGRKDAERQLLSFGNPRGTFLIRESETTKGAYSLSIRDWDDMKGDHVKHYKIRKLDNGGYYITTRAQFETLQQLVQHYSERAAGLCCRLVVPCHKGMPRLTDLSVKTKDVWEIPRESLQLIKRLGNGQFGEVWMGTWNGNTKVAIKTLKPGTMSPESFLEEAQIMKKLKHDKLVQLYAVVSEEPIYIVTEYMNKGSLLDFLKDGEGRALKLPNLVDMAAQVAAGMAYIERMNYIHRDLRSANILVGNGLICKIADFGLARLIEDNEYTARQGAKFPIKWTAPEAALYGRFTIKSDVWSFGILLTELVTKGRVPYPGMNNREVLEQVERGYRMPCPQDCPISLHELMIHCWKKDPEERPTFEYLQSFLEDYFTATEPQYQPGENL

SMILES strings stand for the structures.

As to `COc1cc(-c2cnc3ccc(-c4ccc(CO)cc4)nn23)ccc1O` [Compound 407, 4-[6-[4-(hydroxymethyl)phenyl]imidazo [1,2-b]pyridazin-3-yl]-2-methoxy-phenol], the IC50 (usually the concentration needed to halve the response being measured) was 125 nM.

Turning to `CNC(=O)c1cccc(-c2ccc3ncc(-c4ccc(OC)c(OC)c4)n3n2)c1` [Compound 408, 3-[3-(3,4-dimethoxyphenyl)imidazo[1,2-b]pyridazin-6-yl]-N-methyl-benzamide], the IC50 was 3490 nM.

Take `CC(=O)Nc1cccc(-c2ccc3ncc(-c4ccncc4)n3n2)c1` [Compound 409, N-[3-[3-(4-pyridyl)imidazo [1,2-b]pyridazin-6-yl]phenyl] acetamide]: the IC50 came out at 598 nM.

Take `c1cncc(-c2cnc3ccc(-c4ccoc4)nn23)c1` [Compound 410, 6-(3-furyl)-3-(3-pyridyl)imidazo [1,2-b]pyridazine]: the IC50 was determined as 2350 nM.

`COc1ccc(-c2ccc3ncc(-c4cccc(NC(C)=O)c4)n3n2)cc1OC` [Compound 411, N-[3-[6-(3,4-dimethoxyphenyl)imidazo[1,2-p]pyridazin-3-yl]phenyl] acetamide]: the IC50 stood at 259 nM.

As for `Oc1cccc(-c2cnc3ccc(-c4ccoc4)nn23)c1` [Compound 412, 3-[6-(3-furyl)imidazo[1,2-b]pyridazin-3-yl]phenol], the half-inhibitory concentration (IC50) was found to be 1060 nM.

On to `CC(=O)c1cccc(-c2cnc3ccc(-c4ccncc4)nn23)c1` [Compound 413, 1-[3-[6-(4-pyridyl)imidazo [1,2-b]pyridazin-3-yl]phenyl] ethanone], for which the IC50 worked out at 371 nM.

On to `Cc1cccc(Cc2ccc3ncc(-c4ccncc4)n3n2)c1` [Compound 414, 6-(m-tolylmethyl)-3-(4-pyridyl)imidazo [1,2-b]pyridazine], for which the IC50 was 977 nM.

For `Fc1ccc(-c2ccc3ncc(-c4ccc5c(c4)OCO5)n3n2)cc1` [Compound 415, 3-(1,3-benzodioxol-5-yl)-6-(4-fluorophenyl) imidazo[1,2-b]pyridazine], the IC50 amounted to 7600 nM.

In the case of `COc1ccc(-c2ccc3ncc(-c4ccc(OC)c(OC)c4)n3n2)cc1OC` [Compound 416, 3,6-bis(3,4-dimethoxyphenyl) imidazo[1,2-b]pyridazine], the IC50 was 538 nM.

Take `COc1ccccc1-c1ccc2ncc(-c3cccc(O)c3)n2n1` [Compound 417, 3-[6-(2-methoxyphenyl)imidazo[1,2-b]pyridazin-3-yl]phenol]: the IC50 was 2740 nM.

As to `OCc1ccc(-c2cnc3ccc(-c4ccccc4)nn23)cc1` [Compound 418, [4-(6-phenylimidazo [1,2-b]pyridazin-3-yl)phenyl] methanol], the IC50 was 1460 nM.

As to `CC(=O)Nc1ccc(-c2ccc3ncc(-c4ccc(CO)cc4)n3n2)cc1` [Compound 419, N-[4-[3-[4-(hydroxymethyl)phenyl]imidazo [1,2-b]pyridazin-6-yl]phenyl] acetamide], the IC50 is 21500 nM.

`COc1cc(-c2cnc3ccc(-c4cccc(CO)c4)nn23)ccc1O` [Compound 420, 4-[6-[3-(hydroxymethyl)phenyl]imidazo [1,2-b]pyridazin-3-yl]-2-methoxy-phenol]: the IC50 amounted to 102 nM.

Regarding `CC(=O)c1cccc(-c2cnc3ccc(-c4cccc(CO)c4)nn23)c1` [Compound 421, 1-[3-[6-[3-(hydroxymethyl)phenyl]imidazo [1,2-b]pyridazin-3-yl]phenyl] ethanone], the IC50 worked out at 179 nM.

Regarding `COc1cc(-c2ccc3ncc(-c4cccs4)n3n2)ccc1O` [Compound 423, 2-methoxy-4-[3-(2-thienyl)imidazo[1,2-b]pyridazin-6-yl]phenol], the IC50 amounted to 694 nM.

Regarding `O=C(NCCO)c1cccc(-c2ccc3ncc(-c4ccccc4)n3n2)c1` [Compound 424, N-(2-hydroxyethyl)-3-(3-phenyl-imidazo[1,2-b]pyridazin-6-yl)benzamide], the IC50 turned out to be 13900 nM.

As for `c1ccc(Cc2ccc3ncc(-c4ccncc4)n3n2)cc1` [Compound 425, 6-benzyl-3-(4-pyridyl)imidazo [1,2-b]pyridazine], the IC50 was 624 nM.

With `NC(=O)c1ccc(-c2ccc3ncc(-c4cccnc4)n3n2)cc1` [Compound 426, 4-[3-(3-pyridyl)imidazo [1,2-b]pyridazin-6-yl]benzamide], the IC50 was 11200 nM.

Consider `CC(=O)c1cccc(-c2cnc3ccc(-c4cccnc4)nn23)c1` [Compound 427, 1-[3-[6-(3-pyridyl)imidazo [1,2-b]pyridazin-3-yl]phenyl] ethanone], for which the IC50 came out at 1230 nM.

On to `COc1cccc(-c2ccc3ncc(-c4cccc(C(C)=O)c4)n3n2)c1` [Compound 428, 1-[3-[6-(3-methoxyphenyl)imidazo[1,2-b]pyridazin-3-yl]phenyl] ethanone], for which the IC50 was determined as 1780 nM.

As to `Fc1ccc(Cc2ccc3ncc(-c4ccncc4)n3n2)cc1` [Compound 429, 6-[(4-fluorophenyl)methyl]-3-(4-pyridyl)imidazo [1,2-b]pyridazine], the IC50 came to 1450 nM.

Consider `Nc1cccc(-c2ccc3ncc(-c4ccc5c(c4)OCO5)n3n2)c1` [Compound 430, 3-[3-(1,3-benzodioxol-5-yl)imidazo[1,2-b]pyridazin-6-yl]aniline], for which the concentration for half-maximal inhibition (IC50) is 843 nM.

On to `c1cc(-c2ccc3ncc(-c4ccc5c(c4)OCO5)n3n2)co1` [Compound 431, 3-(1,3-benzodioxol-5-yl)-6-(3-furyl) imidazo[1,2-b]pyridazine], for which the IC50 was determined as 1600 nM.

In the case of `COc1ccc(-c2ccc3ncc(-c4ccc(CO)cc4)n3n2)cc1OC` [Compound 432, [4-[6-(3,4-dimethoxyphenyl)imidazo[1,2-b]pyridazin-3-yl]phenyl] methanol], the IC50 worked out at 3940 nM.

Take `CN(C)CCNC(=O)c1cccc(-c2ccc3ncc(-c4ccc5c(c4)OCO5)n3n2)c1` [Compound 433, 3-[3-(1,3-benzodioxol-5-yl)imidazo[1,2-b]pyridazin-6-yl]-N-(2-dimethylamino-ethyl)benzamide]: the IC50 came out at 393 nM.

With `CC(=O)Nc1cccc(-c2cnc3ccc(-c4ccc(F)c(Cl)c4)nn23)c1` [Compound 434, N-[3-[6-(3-chloro-4-fluoro-phenyl)imidazo [1,2-b]pyridazin-3-yl]phenyl] acetamide], the IC50 is 525 nM.

`OCc1ccc(-c2cnc3ccc(-c4cccc(O)c4)nn23)cc1` [Compound 435, 3-[3-[4-(hydroxymethyl)phenyl]imidazo [1,2-b]pyridazin-6-yl]phenol]: the IC50 came out at 1140 nM.

`COc1ccc(-c2ccc3ncc(-c4cccc(CO)c4)n3n2)cc1OC` [Compound 436, [3-[6-(3,4-dimethoxyphenyl)imidazo[1,2-b]pyridazin-3-yl]phenyl] methanol]: the IC50 is 749 nM.

Regarding `CC(=O)c1cccc(-c2ccc3ncc(-c4cccc(C(C)=O)c4)n3n2)c1` [Compound 437, 1-[3-[3-(3-acetylphenyl)imidazo[1,2-b]pyridazin-6-yl]phenyl] ethanone], the IC50 was determined as 582 nM.

Consider `CNc1ccc2ncc(-c3ccsc3)n2n1` [Compound 437_0074, N-methyl-3-(3-thienyl)imidazo [1,2-b]pyridazin-6-amine], for which the IC50 is 4230 nM.

Regarding `CNc1ccc2ncc(-c3ccc(OC)c(OC)c3)n2n1` [Compound 437_0079, 3-(3,4-dimethoxyphenyl)-N-methyl-imidazo[1,2-b]pyridazin-6-amine], the IC50 worked out at 1240 nM.

On to `CNc1ccc2ncc(-c3cccc(NC(C)=O)c3)n2n1` [Compound 437_0081, N-[3-[6-(methylamino)imidazo[1,2-b]pyridazin-3-yl]phenyl] acetamide], for which the IC50 stood at 1750 nM.

Regarding `CNc1ccc2ncc(-c3ccc(OC)cc3)n2n1` [Compound 437_0280, 3-(4-methoxyphenyl)-N-methyl-imidazo[1,2-b]pyridazin-6-amine], the IC50 was 4160 nM.

As for `CNc1ccc2ncc(-c3cccc(O)c3)n2n1` [Compound 437_0284, 3-[6-(methyl-amino)imidazo[1,2-b]pyridazin-3-yl]phenol], the IC50 is 2180 nM.

For the compound `CNc1ccc2ncc(-c3ccc(OC)nc3)n2n1` [Compound 437_0311, 3-(6-methoxy-3-pyridyl)-N-methyl-imidazo[1,2-b]pyridazin-6-amine], the IC50 is 4460 nM.

For `CNc1ccc2ncc(-c3ccc(F)cc3)n2n1` [Compound 437_0339, 3-(4-fluoro-phenyl)-N-methyl-imidazo[1,2-b]pyridazin-6-amine], the half-maximal inhibitory concentration (IC50) is 3260 nM.

In the case of `CNc1ccc2ncc(-c3ccccc3O)n2n1` [Compound 437_0340, 2-[6-(methylamino)imidazo[1,2-b]pyridazin-3-yl]phenol], the IC50 was 1130 nM.

For the compound `CNc1ccc2ncc(-c3cccc(C(=O)N(C)C)c3)n2n1` [Compound 437_0349, N,N-dimethyl-3-[6-(methylamino)imidazo[1,2-b]pyridazin-3-yl]benzamide], the IC50 is 2940 nM.

As to `CNc1ccc2ncc(-c3cnn(C)c3)n2n1` [Compound 437_7468, N-methyl-3-(1-methylpyrazol-4-yl)imidazo[1,2-b]pyridazin-6-amine], the IC50 came to 5630 nM.

`CN(C)CCNC(=O)c1cccc(-c2ccc3ncc(-c4cccs4)n3n2)c1` [Compound 438, N-(2-dimethyl-aminoethyl)-3-[3-(2-thienyl)imidazo[1,2-b]pyridazin-6-yl]benzamide]: the IC50 stood at 1160 nM.

`c1ccc(-c2ccc3ncc(-c4ccc5c(c4)OCO5)n3n2)cc1` [Compound 439, 3-(1,3-benzodioxol-5-yl)-6-phenyl-imidazo[1,2-b]pyridazine]: the IC50 is 3090 nM.

For the compound `Oc1cccc(-c2ccc3ncc(-c4cccnc4)n3n2)c1` [Compound 440, 3-[3-(3-pyridyl)imidazo [1,2-b]pyridazin-6-yl]phenol], the IC50 stood at 1810 nM.

For the compound `COc1ccc(-c2cnc3ccc(-c4cccs4)nn23)cc1OC` [Compound 441, 3-(3,4-dimethoxy-phenyl)-6-(2-thienyl)imidazo [1,2-b]pyridazine], the IC50 is 211 nM.

Take `Oc1cccc(-c2ccc3ncc(-c4cccc(O)c4)n3n2)c1` [Compound 442, 3-[3-(3-hydroxyphenyl)imidazo[1,2-b]pyridazin-6-yl]phenol]: the IC50 came out at 987 nM.
